Test results as given in patent US20210308108A1, “ACTIVATING PYRUVATE KINASE R” (FORMA Therapeutics, Inc., priority 2018, published 2021).

Assays:
Format in all cases: biochemical
PKR-R510Q [1] = target: T1, PKR-R510Q (Homo sapiens, UniProt P30613, R510Q); assay: Enzyme assay, activation at different compound concentrations (rate of ATP formation); conditions: PEP concentrations at or below Km
wt-PKR [2] = target: T2, wt-PKR (Homo sapiens, UniProt P30613); assay: as above; conditions: PEP concentrations at or below Km
T2 sequence (P30613 whole entry): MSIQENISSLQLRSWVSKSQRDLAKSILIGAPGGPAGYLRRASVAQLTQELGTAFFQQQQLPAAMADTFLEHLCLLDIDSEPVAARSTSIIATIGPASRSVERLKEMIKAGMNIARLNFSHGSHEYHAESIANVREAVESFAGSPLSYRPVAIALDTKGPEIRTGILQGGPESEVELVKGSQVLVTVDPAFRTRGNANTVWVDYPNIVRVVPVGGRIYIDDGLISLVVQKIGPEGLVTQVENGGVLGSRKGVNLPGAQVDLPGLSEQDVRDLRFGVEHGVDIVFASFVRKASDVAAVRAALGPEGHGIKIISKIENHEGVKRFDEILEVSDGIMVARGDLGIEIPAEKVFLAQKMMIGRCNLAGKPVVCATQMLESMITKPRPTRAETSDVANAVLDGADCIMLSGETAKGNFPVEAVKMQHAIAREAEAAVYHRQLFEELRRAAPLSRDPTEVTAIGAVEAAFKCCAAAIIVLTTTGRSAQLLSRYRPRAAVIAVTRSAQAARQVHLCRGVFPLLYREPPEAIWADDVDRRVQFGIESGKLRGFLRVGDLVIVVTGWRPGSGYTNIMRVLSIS

PKR-R510Q [3] = target: T1, PKR-R510Q; assay: Enzyme assay, kinetic parameters (Vmax, PEP Km)
Protocol: (§1) Tests were conducted in the presence and absence of fructose-1,6-bisphosphate (FBP), a known allosteric activator of PKR.

wt-PKR [4] = target: T2, wt-PKR; assay: Enzyme assay, kinetic parameters (Vmax, PEP Km)
Protocol: as §1

[5] = 2 μM Compound 1, in the presence or absence of FBP
[6] = 2 μM Compound 1, presence and absence of FBP

T1 sequence (P30613 whole entry R510Q): as the sequence (P30613 whole entry) above, with R510Q counted along it

## O=C([C@H](CO)c1ccccc1)N1CC2=C(C1)CN(S(=O)(=O)c1cnc3c(c1)OCCO3)C2 (single isomer, unassigned) [Compound 1]
PKR-R510Q [1]
  Maximum-fold Activation: <3.0 fold
wt-PKR [2]
  Maximum-fold Activation: <2.0 fold
PKR-R510Q [3]; [5]
  reduction of PEP Km: ~2 fold
PKR-R510Q [3]; [6]
  effect on Vmax: no effect to a modest increase
wt-PKR [4]; [5]
  reduction of PEP Km: ~2 fold
wt-PKR [4]; [6]
  effect on Vmax: no effect to a modest increase
